Reference: patent US9988343B2, “Inhibitors of histone deacetylase” (Dana-Farber Cancer Institute, Inc., priority 2013, dated 2018)

What was measured:
HDAC6 = biological target: T1, HDAC6 (Homo sapiens, UniProt Q9UBN7); test: HDAC6 inhibitory activity (IC50); assay type: biochemical; conditions: Table 2; read-out: HDAC6
T1 sequence (Q9UBN7 1-1215): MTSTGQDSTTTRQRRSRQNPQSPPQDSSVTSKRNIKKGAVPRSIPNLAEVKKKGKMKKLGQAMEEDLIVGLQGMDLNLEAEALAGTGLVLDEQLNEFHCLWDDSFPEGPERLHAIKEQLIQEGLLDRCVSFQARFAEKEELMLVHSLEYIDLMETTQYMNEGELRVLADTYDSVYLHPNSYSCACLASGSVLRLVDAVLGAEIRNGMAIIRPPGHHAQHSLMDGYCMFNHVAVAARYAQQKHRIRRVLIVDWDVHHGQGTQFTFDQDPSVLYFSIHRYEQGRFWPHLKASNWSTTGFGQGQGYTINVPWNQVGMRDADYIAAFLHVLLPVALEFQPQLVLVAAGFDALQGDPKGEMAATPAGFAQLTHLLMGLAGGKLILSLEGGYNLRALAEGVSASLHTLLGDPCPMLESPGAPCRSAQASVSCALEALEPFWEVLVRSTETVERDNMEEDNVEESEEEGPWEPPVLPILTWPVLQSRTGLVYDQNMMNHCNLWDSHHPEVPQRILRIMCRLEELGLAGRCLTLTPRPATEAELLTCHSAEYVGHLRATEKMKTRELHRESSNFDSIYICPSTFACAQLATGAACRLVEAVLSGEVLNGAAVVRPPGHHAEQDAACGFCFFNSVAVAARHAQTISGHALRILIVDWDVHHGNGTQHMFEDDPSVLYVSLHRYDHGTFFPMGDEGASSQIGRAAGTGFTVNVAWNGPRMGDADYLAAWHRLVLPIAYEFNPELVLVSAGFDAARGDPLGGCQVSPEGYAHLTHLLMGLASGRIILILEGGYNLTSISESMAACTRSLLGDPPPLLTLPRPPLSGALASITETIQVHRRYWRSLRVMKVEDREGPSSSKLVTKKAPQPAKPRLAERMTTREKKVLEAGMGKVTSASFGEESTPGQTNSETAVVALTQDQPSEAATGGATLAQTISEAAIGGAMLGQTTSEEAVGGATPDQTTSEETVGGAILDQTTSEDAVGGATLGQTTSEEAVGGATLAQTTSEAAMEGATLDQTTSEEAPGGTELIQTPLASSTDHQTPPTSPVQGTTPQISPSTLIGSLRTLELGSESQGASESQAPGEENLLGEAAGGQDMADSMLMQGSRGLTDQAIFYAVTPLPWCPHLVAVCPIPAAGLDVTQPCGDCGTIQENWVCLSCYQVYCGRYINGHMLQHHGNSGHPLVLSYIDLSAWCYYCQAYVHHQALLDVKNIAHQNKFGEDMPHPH
Procedure: (§1) HDAC inhibitor compounds designed and synthesized in accordance with the present invention were tested for their inhibitor activity against several different HDAC isoforms.

HDAC3 = HDAC3 (Homo sapiens, UniProt O15379); test: HDAC3 inhibitory activity (IC50); assay type: biochemical; conditions: Table 2; read-out: HDAC3
Procedure: as §1

HDAC2 = HDAC2 (Homo sapiens, UniProt Q92769); test: HDAC2 inhibitory activity (IC50); assay type: biochemical; conditions: Table 2; read-out: HDAC2
Procedure: as §1

HDAC1 = HDAC1 (Homo sapiens, UniProt Q13547); test: HDAC1 inhibitory activity (IC50); assay type: biochemical; conditions: Table 2; read-out: HDAC1
Procedure: as §1

pSTAT3 (Tyr705) = test: Immunoblot of STAT3 phosphorylation in MM cells; assay type: cell-based, human
Procedure: MM cells were harvested and lysed using sodium dodecyl sulfate-polyacrylamide gel electrophoresis (SDS-PAGE) sample buffer containing 60 mM Tris-HCl, pH 6.8, 2% SDS, 10% glycerol, 0.005% bromophenol blue, 5 mM ethylenediaminetetraacetic acid, 5 mM NaF, 2 mM […], 1 mM phenylmethylsulfonyl fluoride (PMSF), 5 μg/mL leupeptin, and 5 μg/mL aprotinin; and then heated at 100° C. for 5 min. After the determination of protein concentration using DC protein assay (Bio-Rad, Hercules, Calif.), β-mercaptoethanol (β-ME) was added to the whole-cell lysates to a 2% final β-ME concentration. The whole-cell lysates were subjected to SDS-PAGE, transferred to nitrocellulose membranes (Bio-Rad, Hercules, Calif.) or polyvinylidene fluoride membranes (Millipore, Billerica, Mass.), and immunoblotted with anti-histone H3, -HDAC1, -HDAC2, -HDAC3, -Acetyl-histone H2A (Lysine 5) (Ac-H2AK5), -Acetyl-histone H2B (lysine 5) (Ac-H2 BK5), -Acetyl-histone H3 (lysine 9) (Ac-H3K9), -Acetyl-histone H4 (lysine 8) (Ac-H4K8), -glyceraldehyde-3-phosphate dehydrogenase (GAPDH), -poly (ADP-ribose) polymerase (PARP), -caspase-3, -caspase-8, -caspase-9, -Signal transducers and activators of transcription 3 (STAT3), -phospho-STAT3 (pSTAT3) (tyrosine 705), -pSTAT3 (serine 727), -p21, -Janus kinase 2 (JAK2), -acetylated-Lysine (Ac-K), and anti-phosphorylated-tyrosine antibodies (Abs; Cell Signaling Technology, Beverly, Mass.).
MM.1S, U266, and INA6 cells were cultured with DMSO control or LBH589 (50 and 100 nM) for 8 h.
MM.1S cells pretreated with or without 50 nM LBH589 for 8 hours were then treated with IL-6 (10 ng/mL) or BMSC culture supernatants (#1 and #2) for 15 minutes. Whole cell lysates were subjected to immunoblotting with anti-pSTAT3 (Tyr705) and STAT3 Abs.
In addition, INA-6 cells were cultured with DMSO control, LBH589 (50 nM), TSA (1 μM) or SAHA (2 μM) for 8 hours. Whole cell lysates were subjected to immunoblotting with anti-pSTAT3 (Tyr705), STAT3, and GAPDH Abs.
Whole cell lysates were subjected to immunoblotting with anti-pSTAT3 (Tyr705), -STAT3, -pERK1/2 (Thr202/204), and -ERK1/2 Abs (FIG. 6G).
See, e.g., Hideshima et al. Blood. 2006, 107:4053-4062. Since bortezomib upregulates activated STAT3 in head and neck squamous cell carcinoma (see, e.g., Li et al. Mol Cancer Ther 2009. 8:2211-2220), experiments were conducted to test whether bortezomib enhances p-STAT3 in MM cells. RPMI8226 cells were infected with Luc, HDAC1 (sh1), HDAC2 (sh1) or HDAC3 (sh1) shRNAs and then treated with or without bortezomib (5 nM) for 6 hours. Whole cell lysates were subjected to immunoblotting with anti-STAT3, -pSTAT3 (Tyr705), -pERK1/2 (Thr202/204) and -ERK1/2 Abs.

MM.1S cells = test: Immunoblot of histone and α-tubulin acetylation in MM.1S cells; assay type: cell-based, human; conditions: 12 h, Compound 10 10 and 20 μM
RPMI8226 cells = test: Combination with bortezomib, MTT cytotoxicity, combination index; assay type: cell-based, human; conditions: RPMI8226, MTT, 24 h
Procedure: The combined effect of drugs was analyzed by isobologram analysis using the Compusyn software program (ComboSyn, Inc.); a combination index (CI)<1 is indicative of a synergistic effect.
All experiments were performed 3 times in quadruplicate. Data represent mean±SD (FIG. 7D).

MM cell lines = test: Cell growth inhibition assay (MTT) in MM cell lines; assay type: cell-based, human; conditions: MM cell lines, 48 hours, MTT (FIG. 1A)
Procedure: To measure proliferation of MM cells, the rate of DNA synthesis was measured by ^3[H]-thymidine (Perkin-Elmer) uptake.
The growth inhibitory effect of Merck60 (HDACL, 2 inhibitor previously reported as compound #60 by Method et al. Bioorg. Med. Chem. Lett. 2008. 18(3):973-8) versus MS275 (HDAC1, 2, 3 inhibitor) was examined in MM cell lines using MTT assay. MM cells were cultured with Merck60 (left panel) or MS275 (right panel) for 48 hours. Cell growth was assessed by MTT assay. All experiments were performed 3 times in quadruplicate. Data represent mean±SD.
Cell growth was assessed by MTT assay. All experiments were performed 3 times in quadruplicate. Data represent mean±SD.

[1] = INA-6 cells, 8 hours, TSA 1 μM, SAHA 2 μM (FIG. 4C)

HDAC2, sequence (Q92769 whole entry): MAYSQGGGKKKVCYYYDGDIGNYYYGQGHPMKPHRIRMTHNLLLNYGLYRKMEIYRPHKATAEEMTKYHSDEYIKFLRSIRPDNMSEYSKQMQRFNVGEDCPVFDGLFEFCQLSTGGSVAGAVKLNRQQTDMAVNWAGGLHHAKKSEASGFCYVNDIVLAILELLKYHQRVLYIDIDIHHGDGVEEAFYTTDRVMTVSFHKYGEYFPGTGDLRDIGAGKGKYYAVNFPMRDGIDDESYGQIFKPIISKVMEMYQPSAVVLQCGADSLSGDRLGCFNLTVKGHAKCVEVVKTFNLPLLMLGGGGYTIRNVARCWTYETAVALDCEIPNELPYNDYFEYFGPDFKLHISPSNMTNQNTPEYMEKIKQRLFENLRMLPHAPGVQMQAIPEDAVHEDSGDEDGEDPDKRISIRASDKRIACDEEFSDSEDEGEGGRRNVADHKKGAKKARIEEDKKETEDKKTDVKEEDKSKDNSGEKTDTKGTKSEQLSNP
HDAC3, sequence (O15379 whole entry): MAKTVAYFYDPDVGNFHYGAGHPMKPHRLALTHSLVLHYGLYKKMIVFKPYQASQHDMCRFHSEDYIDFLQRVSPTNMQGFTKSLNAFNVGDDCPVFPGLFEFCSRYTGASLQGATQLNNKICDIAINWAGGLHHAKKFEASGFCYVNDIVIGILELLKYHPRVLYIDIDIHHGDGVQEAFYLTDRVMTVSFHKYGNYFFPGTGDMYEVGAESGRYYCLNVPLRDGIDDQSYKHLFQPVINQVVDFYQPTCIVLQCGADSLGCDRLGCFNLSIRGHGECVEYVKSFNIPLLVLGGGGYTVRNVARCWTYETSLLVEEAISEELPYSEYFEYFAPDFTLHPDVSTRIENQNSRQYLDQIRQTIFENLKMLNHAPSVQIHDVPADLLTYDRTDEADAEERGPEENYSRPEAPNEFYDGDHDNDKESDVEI
HDAC3, sequence (Q9Y618 395-489 partner limits assumed): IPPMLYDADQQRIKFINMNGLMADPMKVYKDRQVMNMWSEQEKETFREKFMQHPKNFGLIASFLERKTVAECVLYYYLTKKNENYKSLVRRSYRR
HDAC1, sequence (Q13547 whole entry): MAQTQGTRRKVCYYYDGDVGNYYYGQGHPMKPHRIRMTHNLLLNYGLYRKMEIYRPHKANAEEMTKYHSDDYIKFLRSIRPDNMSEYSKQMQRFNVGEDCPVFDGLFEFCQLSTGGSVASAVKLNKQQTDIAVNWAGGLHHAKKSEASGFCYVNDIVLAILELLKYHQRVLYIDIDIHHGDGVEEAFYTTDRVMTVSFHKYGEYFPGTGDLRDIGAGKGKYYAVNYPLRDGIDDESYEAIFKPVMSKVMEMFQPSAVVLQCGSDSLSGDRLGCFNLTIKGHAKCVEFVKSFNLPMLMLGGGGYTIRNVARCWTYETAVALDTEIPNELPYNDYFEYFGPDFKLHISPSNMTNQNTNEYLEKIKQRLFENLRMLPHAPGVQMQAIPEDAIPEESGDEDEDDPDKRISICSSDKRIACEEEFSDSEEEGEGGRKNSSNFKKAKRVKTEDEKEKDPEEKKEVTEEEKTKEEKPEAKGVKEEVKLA

SMILES | IC50 (HDAC6) | IC50 (HDAC3) | IC50 (HDAC2) | IC50 (HDAC1) | other results
Nc1ccccc1NC(=O)c1ccc(Cl)nc1 [Compound 9] | > 100000 nM | 280 nM | 2590 nM | 3280 nM | –
Nc1ccccc1NC(=O)c1cnc(Nc2ccccc2)nc1 [Compound 8] | > 100000 nM | 169 nM | 1210 nM | 735 nM | –
O=C(Nc1ccccc1O)c1ccccn1 [Compound 7] | > 100000 nM | 3620 nM | 4110 nM | 12400 nM | –
O=C(Nc1ccccc1O)c1cccnc1 [Compound 5] | > 100000 nM | 3320 nM | 3670 nM | 10500 nM | –
Cc1ccc(C(=O)Nc2ccccc2N)cn1 [Compound 17] | > 100000 nM | 213 nM | 1360 nM | 1390 nM | –
CC(/C=C/C(=O)NO)=C\[C@@H](C)C(=O)c1ccc(N(C)C)cc1 [TSA] | – | – | – | – | p-STAT3 (pSTAT3 (Tyr705); [1]): downregulated p-STAT3
Nc1cc(F)ccc1NC(=O)c1cccnc1 [Compound 13] | > 100000 nM | 1960 nM | 13400 nM | 27000 nM | –
O=C(Nc1ccc(F)cc1O)c1cccnc1 [Compound 15] | > 100000 nM | 2350 nM | 5520 nM | 13700 nM | –
Nc1cc(F)ccc1NC(=O)c1cnccn1 [Compound 14] | > 100000 nM | 296 nM | 2320 nM | 4120 nM | –
O=C(Nc1ccccc1O)c1ccncc1 [Compound 6] | > 100000 nM | 1990 nM | 1910 nM | 5770 nM | –
Cc1[nH]c2ccccc2c1CCNCc1ccc(/C=C/C(=O)NO)cc1 [LBH589, reference compound] | – | – | – | – | P-STAT3 upregulated by IL-6 or BMSC culture supernatants (pSTAT3 (Tyr705); MM.1S, 50 nM pretreatment 8 hours, IL-6 10 ng/mL or supernatants 15 minutes (FIG. 4B)): blocked; p-STAT3 (pSTAT3 (Tyr705); MM.1S, U266, INA-6 cells, 50 and 100 nM, 8 h (FIG. 4A)): significantly inhibited; histone acetylation (MM.1S cells; LBH589 50 and 100 nM (FIG. 6F left)): significantly triggered both histone and α-tubulin acetylation; α-tubulin acetylation (biomarker of HDAC6 inhibition) (MM.1S cells; LBH589 50 and 100 nM (FIG. 6F right)): significantly triggered both histone and α-tubulin acetylation
CC(=O)Nc1ccc(C(=O)Nc2cc(-c3cccs3)ccc2N)cc1 [Merck60, 4-acetamido-N-(2-amino-5-(thiophen-2-yl)phenyl)benzamide] | – | – | – | – | CI (combination index) (RPMI8226 cells; HDAC inhibitor 1 μM + bortezomib 2 nM): 1.95; CI (combination index) (RPMI8226 cells; HDAC inhibitor 1 μM + bortezomib 3 nM): 1.06; CI (combination index) (RPMI8226 cells; HDAC inhibitor 1 μM + bortezomib 4 nM): 1.19; CI (combination index) (RPMI8226 cells; HDAC inhibitor 2 μM + bortezomib 2 nM): 1.54; CI (combination index) (RPMI8226 cells; HDAC inhibitor 2 μM + bortezomib 3 nM): 1.21; CI (combination index) (RPMI8226 cells; HDAC inhibitor 2 μM + bortezomib 4 nM): 1.34; CI (combination index) (RPMI8226 cells; HDAC inhibitor 3 μM + bortezomib 2 nM): 1.45; CI (combination index) (RPMI8226 cells; HDAC inhibitor 3 μM + bortezomib 3 nM): 1.4; CI (combination index) (RPMI8226 cells; HDAC inhibitor 3 μM + bortezomib 4 nM): 1.55; MM cell growth inhibition (MM cell lines): only a modest growth inhibition effect
Nc1ccccc1NC(=O)c1cccnc1 [Compound 1] | 74300 nM | – | – | – | –
CC(=O)Nc1ccc(C(=O)Nc2ccc(F)cc2N)cc1 [Compound 12] | > 100000 nM | 70.2 nM | 760 nM | 1230 nM | –
CC(=O)Nc1ccc(C(=O)Nc2cc(-c3ccccc3)ccc2N)cc1 [Compound 11] | > 100000 nM | 843 nM | 60.4 nM | < 10 nM | –
O=C(CCCCCCC(=O)Nc1ccccc1)NO [SAHA, suberoylanilide hydroxamic acid] | – | – | – | – | p-STAT3 (pSTAT3 (Tyr705); [1]): downregulated p-STAT3
Nc1ccccc1NC(=O)c1ccccn1 [Compound 3] | > 100000 nM | 346 nM | 2360 nM | – | –
Nc1ccccc1NC(=O)c1ccncc1 [Compound 2] | > 100000 nM | 368 nM | 2340 nM | 2820 nM | –
